Assay results reported in patent publication US20150335615A1, “CHOLESTEROL-LOWERING COMPOUNDS IN COMBINATION WITH LIPID METABOLISM-ALTERING COMPOUNDS OF NON-ABSORBABLE SUGARS, COMPOUNDS THAT CONVERT NH3 TO NH4+, OR HYDROGEN-GENERATING COMPOUNDS FOR THE TREATMENT OF HIGH CHOLESTEROL AND INFLAMMATION” (priority 2013, published 2015).
“Also recorded” adds a separate entry of the source.

Columns and labels:
[1] = system: F. nucleatum; settings: FIG. 4
Experimental: Incubate one of the periodontal bacteria for 4 hours with/without hydrogen and measure the hydrogen sulfide concentration.
Culture F. nucleatum (oral bacteria that produce H2S) overnight.
Incubate F. nucleatum in H2 or N2 condition for 4 hours.
Keep supernatant (3 ml) in 15 ml conical tube at 4° C.
Measure the H2S concentration in the conical tube (N=5, 1:10 dilution).

[2] = system: rats; settings: cited from earlier work
[3] = system: LDLR knockout mice; assay: Liver histology, fatty liver development in LDLR knockout mice on high fat diet (Example 3); assay type: in vivo; settings: LDLR-KO mice, high fat diet 12 weeks; lactulose 400 mg/day oral gavage; FIG. 7
Experimental: (§1) Low density lipoprotein receptor (LDLR) knockout mice and their wild type (C57BL6/J), were purchased from Jackson Laboratories (Bar Harbor, Me., USA). Male LDLR knockout mice (9-w old male) received control standard diet (Picolab, MO, USA; diet #5053) or high fat diet (Tekland Custom Diet, WI, USA; diet #TD88137). The LDLR mice received high fat diet were further randomly divided into four groups; G1) 20 mg/kg day atorvastatin group, G2) 400 mg/day lactulose group, G3) combination group, and G4) negative control group (no atorvastatin or lactulose). Atorvastatin was supplemented in the diet and lactulose was administered by oral gavage, twice a day. Wild type mice were maintained on the standard diet. All mice were fed with above noted respective diet for 12 weeks and sacrificed for post mortal analyses.
Blood was collected by heart puncture at left ventricular on the sacrificed mice, followed flushing the blood circulation with PBS, and the aorta and liver lobes were removed for laboratory evaluations.
Aortas and liver lobes were frozen in OCT compound (Sakura finetek, Japan).
Cryosections of aortas and liver lobes were stained with hematoxylin and eosin. Atherosclerosis legions were evaluated by Oil-Red 0 staining.

[4] = system: LDLR-KO mice; assay: Weight increase of LDLR-KO mice on western diet (Example 4); assay type: in vivo; settings: western diet 12 weeks, atorvastatin 0.16% w/w in HFD, lactulose 3 g/kg/day oral, FIG. 9
From the text: (§2) Animals: Homozygous LDL receptor knockout (LDLr−/−; C57BL/6) mice were purchased from the Jackson Laboratory (Bar Harbor, Me.). This genetically manipulated mouse strain is most commonly used for the pre-clinical study of high-fat diet induced hyperlipidemia and atherosclerosis. Nine weeks of age mice were separated into five groups (Groups #1-#5) and fed with normal diet (Group #1; Picolab, 5053) or high fat diet (Group #2-#5; HFD; Harlan Teklad, TD 88137) for 12 weeks. Atorvastatin (Lipitor) was added to the HFD (0.16% w/w) to Group #4 and Group #5. Lactulose (3 g/kg/day, in water solution) was orally administered every 12 hours to Group #3 and Group #5. The LDLR-KO mice were fed for three months with a normal or western diet, with or without lactulose, and with or without atorvastatin.

[5] = system: LDLR-KO mice; assay: Serum lipids and Ox-LDL in LDLR-KO mice on western diet (Example 4); assay type: in vivo; settings: LDLR-KO mice at 1.5 months and 3 months; FIGS. 10A and 10B
From the text: as §2, with “atorvastatin. Analysis of serum samples: Lipids, including LDL and HDL, as well as oxidized low density lipoprotein (Ox-LDL) present in serum was measured using an ELISA kit (Cell biolabs).” for “atorvastatin.”

[6] = system: Substance P and nerve growth factor (NGF); assay: Pain associated factors (Substance P, NGF) in mice with pregabalin; assay type: in vivo; settings: hydrogen generated by lactulose
[7] = system: LDLR knockout mice; assay: Serum lipoproteins (HDL, LDL, Ox-LDL) in LDLR knockout mice on high fat diet (Example 3); assay type: in vivo
Experimental: as §1, with “analyses. Blood was collected by heart puncture at left ventricular on the sacrificed mice, followed flushing the blood circulation with PBS, and the aorta and liver lobes were removed for laboratory evaluations. Blood was drawn from heart in the absence of anti-coagulant agents, and the serum was prepared. High-density lipoprotein cholesterol and low-density lipoprotein (LDL) cholesterol were determined by a commercial colorimetric assay (Sigma-Aldrich, MO, USA). Oxidative-LDL was measured by ELISA (Uscn Life Science, TX, USA).” for “analyses.”

[8] = system: patients suffering from minimal hepatic encephalopathy (MHE); settings: compared to placebo or no intervention; cited from earlier work
[9] = H2 amount in mice after oral inulin; assay type: in vivo; settings: oral administration

Molecule: hydrogen
- production of dimethyl sulfide (DMS) ([1]; F. nucleatum cultured with H2): elevated production
- Hydrogen sulfide (H2S) concentration ([1]; F. nucleatum incubated in H2 or N2 condition for 4 hours): tends to be reduced

Molecule: OC[C@H]1O[C@@H](O[C@@H]2[C@@H](CO)OC(O)(CO)[C@H]2O)[C@H](O)[C@@H](O)[C@H]1O (mixture of isomers) [lactulose]
- incidence of MHE [2]: decreased
- latency of BAEP [2]: normalized
- level of hyper-endotoxemia [2]: significantly lowered
- level of hyperammonemia [2]: significantly lowered
- fatty liver development [3]: remarkable preventative effects
- weight increase [4]: moderate weight increase; also recorded: suppress weight gain
- amount of Ox-LDL in serum [5]: able to suppress
- pregabalin-mediated suppression of pain associated factors (Substance P and nerve growth factor (NGF)) [6]: additive effect
- amount of HDL (good cholesterol) ([7]; LDLR-KO mice, high fat diet 12 weeks, atorvastatin 20 mg/kg day in diet, lactulose 400 mg/day oral gavage, FIG. 8A): didn't change
- LDL (bad cholesterol) levels ([7]; LDLR-KO mice, high fat diet 12 weeks, atorvastatin 20 mg/kg day in diet, lactulose 400 mg/day oral gavage, FIG. 8B): no effects; also recorded: did not change
- blood Ox-LDL caused by a fat diet ([7]; lactulose by itself, previously found): can suppress
- blood ammonia levels [8]: reduced
- health-related quality of life [8]: improved
- progression to overt hepatic encephalopathy [8]: prevented
- risk of no improvement in neuropsychological tests [8]: reduced

Molecule: Inulin
- amount of H2 [9]: elevates
